The source made the active and inactive calls. The calls are words filed in the database; no cut-off is given here.

Here are results for 27 compounds from ChEMBL document CHEMBL3046362, “Synthesis, antioxidant evaluation, and quantitative structureactivity relationship studies of chalcones” (Med Chem Res, 2011).

Holding throughout (assay type): functional
Test [1] relates to Radical scavenging activity. As to the kind of experiment: Antioxidant activity assessed as DPPH radical scavenging activity at 50 ug/ml after 20 min. For orientation: The DPPH test is a chemical assay of radical scavenging.
Test [2] in a line: Antioxidant activity assessed as reducing power of potassium ferricyanide at 50 ug/ml after 20 min by spectrophotometry. The arrangement: scale not given: the % may be the effect or the level left.
Test [3] in a line: Antioxidant activity assessed as hydrogen peroxide radical scavenging activity at 50 ug/ml after 10 min by spectrophotometry.
Test [4] can be described thus: Antioxidant activity assessed as superoxide radical scavenging activity at 50 ug/ml after 10 min by NBT reduction assay.
Test [5] relates to Radical scavenging activity. Put plainly: Antioxidant activity assessed as DPPH radical scavenging activity at 100 to 250 ug/ml by EPR spectroscopy.

For `COc1ccc(C(=O)/C=C/c2ccc(SC)cc2)cc1`, the Activity in test [1] amounted to 2.64%; in test [2] it was 24.3%; in test [3], 29.5%; in test [4] it was 17.8%.
For `CN(C)c1ccc(/C=C/C(=O)c2ccccc2)cc1`, in that order: 8.08%, 9.52%, 12.1% and 13.8%.
For the compound `COc1ccc(/C=C/C(=O)c2cccc(O)c2)cc1`, the outcome in test [5] was Active. Moreover, the Activity in test [1] came out at 35.7%; in test [2], 37.5%; in test [3], 42.8%; in test [4], 62%.
`COc1ccc(/C=C/C(=O)c2cccc([N+](=O)[O-])c2)c(OC)c1`: the Activity in test [1] was 7.9%; in test [2] it was 26.5%; in test [3] it was 5.91%; in test [4], 23.1%.
Take `CSc1ccc(/C=C/C(=O)c2cccc([N+](=O)[O-])c2)cc1`: the Activity was 15.3% in test [1], 27.2% in test [2], 46.4% in test [3] and 39.7% in test [4].
For `CSc1ccc(/C=C/C(=O)c2ccc(Cl)cc2Cl)cc1`, in that order: 4.07%, 10.1%, 17.4% and 30.9%.
`CSc1ccc(/C=C/C(=O)c2cccc(O)c2)cc1`: the Activity in test [1] amounted to 21.2%; in test [2], 51.6%; in test [3], 28.7%; in test [4] it was 53.3%.
For `COc1ccc(/C=C/C(=O)c2ccc(C)cc2)cc1`, in that order: 1.3%, 23.1%, 4.54% and 15.4%.
`COc1ccccc1/C=C/C(=O)c1ccc([N+](=O)[O-])cc1`: the Activity in test [1] came to 7%; in test [2], 32.8%; in test [3], 61.3%; in test [4], 34.5%.
For `CSc1ccc(/C=C/C(=O)c2ccc([N+](=O)[O-])cc2)cc1`, in that order: 15.9%, 3.17%, 4.61% and 17.4%.
For `COc1ccccc1/C=C/C(=O)c1cccc([N+](=O)[O-])c1`, in that order: 6.93%, 22.4%, 24.3% and 5.39%.
As to `Cc1cc(C(C)(C)C)c(O)c(C(C)(C)C)c1`, the Activity turned out to be 26.4% in test [1], 56.1% in test [2], 42.6% in test [3] and 79.1% in test [4].
For `CSc1ccc(/C=C/C(=O)c2ccccc2O)cc1`, in that order: 15.4%, 46.7%, 33.3% and 50.2%.
For `O=C(/C=C/c1ccccc1)c1ccccc1`, the Activity in test [1] was found to be 18.6%; in test [2], 42.4%; in test [3] it was 25.4%; in test [4] it was 32.6%.
For `COc1ccccc1/C=C/C(=O)c1ccccc1`, in that order: 0.98%, 21.8%, 4.54% and 18.6%.
With `O=C1O[C@H]([C@@H](O)CO)C(O)=C1O`, the Activity in test [1] came to 28%; in test [2] it was 22.6%; in test [3], 78.3%; in test [4], 82.9%.
For `CN(C)c1ccc(/C=C/C(=O)c2ccc(Cl)cc2Cl)cc1`, in that order: 12.9%, 22%, 32.6% and 10.9%.
Consider `CSc1ccc(/C=C/C(=O)c2ccc(Br)cc2)cc1`, for which the Activity in test [1] came out at 18%; in test [2] it was 18.8%; in test [3], 49.7%; in test [4], 18%.
`CSc1ccc(/C=C/C(=O)c2ccc(Cl)cc2)cc1`: the Activity in test [1] was determined as 23.2%; in test [2], 30.9%; in test [3], 43.5%; in test [4], 41.4%.
Regarding `COc1ccc(/C=C/C(=O)c2cccc([N+](=O)[O-])c2)cc1OC`, the Activity in test [1] was determined as 15.4%; in test [2] it was 43.5%; in test [3], 35.9%; in test [4] it was 53.4%.
For `COc1ccc(/C=C/C(=O)c2ccc(Cl)cc2Cl)cc1OC`, in that order: 15.7%, 33.8%, 23.8% and 32.6%.
For `COc1ccc(/C=C/C(=O)c2ccccc2)cc1`, in that order: 5.34%, 21.2%, 12.3% and 21.3%.
For `CSc1ccc(/C=C/C(=O)c2ccc(O)cc2)cc1`, in that order: 28.9%, 46%, 23.8% and 52.6%.
Turning to `CSc1ccc(/C=C/C(=O)c2ccc(C)cc2)cc1`, the Activity worked out at 3.16% in test [1], 23.8% in test [2], 31.7% in test [3] and 23.1% in test [4].
For `CN(C)c1ccc(/C=C/C(=O)c2cccc([N+](=O)[O-])c2)cc1`, in that order: 18.6%, 28.6%, 17.4% and 39%.
For `COc1cc(/C=C/C(=O)c2ccccc2)cc(OC)c1OC`, in that order: 15.6%, 40.6%, 22.7% and 28.9%.
For `CSc1ccc(/C=C/C(=O)c2ccccc2)cc1`, in that order: 10.2%, 19.8%, 4.26% and 27.4%.
